Assay in all cases: growth of human tumour cells (NCI), 48 h
Test [1] deals with NCI-H226 lung.
Test [2] has as its system LXFL 529 NSCLC.
Test [3] relates to KM20L2 colon.
The subject of test [4] is DMS 273 small cell lung.
Test [5] deals with XF 498 CNS.
Test [6] concerns DU-145 prostate.
The subject of test [7] is MDA-MB-435.
In test [8] the test system is MCF7 breast.
Test [9] deals with BT-549 breast.
The test system of test [10] is MDA-MB-231 breast.
Test [11] has as its system HS 578T breast.

“And” between values parts separate entries of the source, which are not always exact repeats. Equal entries are not always repeated.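 Following 48 hours of exposure in 96-well plates, responses at five concentrations were used to interpolate endpoints linearly. GI50 is the concentration that inhibits growth by half. Definition used: TGI = concentration required for complete inhibition of growth.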

Take `Cc1[nH]c(=O)nc2[nH][nH]c(=O)c12`: the TGI in [1] and in test [2] was greater than 100 µM in each case.
With `O=C1C2C3C=C4c5ccccc5N(c5ccccc5)C4(C2C(=O)N1c1ccc([N+](=O)[O-])cc1)[C@H]1C(=O)N(c2ccc([N+](=O)[O-])cc2)C(=O)[C@@H]31` (stereo partly drawn), the TGI in test [1], in test [3] and in test [4] was greater than 100 µM in each case.
Regarding `O=C(/C=C/c1ccc(Cl)c(Cl)c1)c1ccc2ccccc2c1`, the TGI in test [1], in [2], in test [3] and in [4] was greater than 100 µM in each case.
In the case of `O=C(N/N=C/c1cc(Br)ccc1O)N/N=C/c1cc(Br)ccc1O`, the TGI in [1] was 9.64 µM; in test [3], greater than 100 µM; in [4], greater than 100 µM; in [5], greater than 100 µM.
Take `Cn1c(O)c(C(=O)NC2CCCCC2)c(=O)n(C)c1=S`: the TGI worked out at 30.5 µM in test [1], 16 µM in test [2] and 23.4 µM in test [3].
Regarding `CCCN(CCC)C(=O)c1c([N+](=O)[O-])cc(C(F)(F)F)cc1[N+](=O)[O-]`, the TGI in test [1] was 65.3 µM; in test [2], greater than 100 µM; in [3], 53.7 µM; in [4], greater than 100 µM.
`c1ccc(C2N3CCCCC3[C@@H]3c4[nH]c5ccccc5c4CCN23)nc1` (stereo partly drawn): the TGI in [2], in [3] and in test [4] was greater than 100 µM in each case.
As for `COC(=O)[C@@]12C(=O)C=CC(=O)C1C1C(=CC2C)OC2OC3(CCCCC3)OC21` (stereo partly drawn), the TGI in test [1] amounted to 33.7 µM; in test [2], 26.3 µM; in [3] it was 38.4 µM; in [4] it was 36.2 µM.
`Nc1ccccc1/C(O)=C1/CCOC1=O`: the TGI in test [1], in test [2] and in test [5] was greater than 100 µM in each case.
For `COc1ccc(C2=C(Cl)c3cc(OC)c(OC)cc3C2Cl)cc1` (stereo not drawn), the TGI in test [6] stood at 45.4 µM; in [1] it was 66 µM; in test [7], 28.5 µM; in [8] it was 22.8 µM; in test [9] it was 15.6 µM; in [2] it was 28.4 µM. In addition, the TGI in [3] worked out at 30.5 µM; in test [4], 39.5 µM; in [10], 36.6 µM; in test [11] it was 76.5 µM.
As to `c1ccc(Sc2ccc(Cc3nc4cc5ccccc5cc4[nH]3)cc2)cc1`, the GI50 is 23 µM in test [6]; 2.48 µM in test [1]; 11.9 µM in test [7]; 6.73 µM in [8]; 16.4 µM in test [9]; 3.31 µM in test [10]. Also, the GI50 in test [11] is 17.7 µM. The TGI in [6] is greater than 100 µM; in test [1], 26.9 µM; in [7] it was greater than 67.7 µM; in test [8], greater than 100 µM; in test [9] it was greater than 84.9 µM; in test [10], 29.9 µM. In [11], this compound yielded a TGI of 91.5 µM.
Turning to `CC1=CC(=O)C=CC1=O`, the GI50 is 17.3 µM and 17.8 µM in [6]; 20.4 µM and 33.1 µM in test [1]; 12.3 µM in [7]; 14.7 µM and 15.4 µM in test [8]; 16.2 µM and 14.9 µM in test [9]; 16.2 µM in test [10]. In addition, in test [11], the GI50 was 14.4 µM and 24.9 µM. Also, the TGI in [6] was 31 µM and 32.4 µM; in [1] it was 48.6 µM and 240 µM; in test [7], 25.4 µM; in test [8] it was 34.5 µM and 41.4 µM; in test [9] it was 40 µM and 28.3 µM; in test [10], 30.4 µM. Further, in test [11], the TGI is 47.1 µM and 246 µM.
As to `O=C(CC(=O)n1nc(-c2ccccc2)c(N=Nc2ccc(Cl)cc2)c1-c1ccccc1)Nc1ccc(Cl)cc1`, the TGI in test [1], in test [2], in [3] and in [4] was greater than 100 µM in each case.
On to `COC(=O)Nc1nc2ccc(C3(c4ccc(F)cc4)OCCO3)cc2[nH]1`, for which the GI50 in [6] was 0.363 µM; in [1], 2.15 µM; in test [7] it was 0.0436 µM; in test [8], 0.18 µM; in [9], 2.77 µM; in [10], 0.598 µM. Moreover, the GI50 in test [11] is 0.315 µM. Moreover, the TGI in test [6] is greater than 100 µM; in test [1], greater than 94 µM; in test [7], 0.238 µM; in test [8], greater than 100 µM; in [9], greater than 100 µM; in test [10], 99.5 µM. Moreover, the TGI in test [11] was greater than 69.9 µM.
For the compound `CCCCNC1CCCCC[C@H]1O` (stereo partly drawn), the TGI in test [1], in test [2], in test [3] and in test [4] was greater than 100 µM in each case.
On to `O=C1c2cccnc2-c2nc(-c3ccc(Cl)cc3)cc3c2c1nc1ccccc13`, for which the GI50 in [6] was 75.4 µM; in test [1], 49.5 µM; in test [7], 22.5 µM; in [8], 18.8 µM; in test [9], 18 µM; in test [10] it was 44.1 µM. Besides, the GI50 in test [11] was 29 µM. Besides, the TGI was greater than 100 µM in test [6]; greater than 100 µM in test [1]; 86.4 µM in test [7]; 75.4 µM in test [8]; 51.1 µM in [9]; greater than 100 µM in test [10]. Moreover, the TGI in [11] was greater than 100 µM.
On to `CC(=O)O[C@H]1CCC2[C@@H]3CC[C@]4(C)CC(=O)C=C[C@]4(C)C3CC[C@@]21C` (stereo partly drawn), for which the TGI in [6] was greater than 100 µM; in [1], greater than 77.7 µM; in test [7], 94.7 µM; in [9], 32.1 µM; in [2] it was 28 µM; in test [3], 43.5 µM. Besides, the figures for the TGI in [4] and in [10] were 31.7 µM and 77.9 µM, respectively.
For the compound `O=C(Nc1n[nH]c2cc(-c3ccccc3)ccc12)C1CC1`, the GI50 in [6] was 9.28 µM; in test [1], greater than 25 µM; in [7], 0.721 µM; in [8], 3.95 µM; in test [9] it was 15.5 µM; in test [10] it was 14.7 µM. The GI50 in test [11] is 18.9 µM. Also, the TGI in test [6], in test [1], in test [7], in test [8], in [9] and in test [10] was greater than 25 µM throughout. The compound also gave a TGI in test [11] greater than 25 µM.
For `O=S(=O)(c1ccc(NC(=S)NC23CC4CC(CC(C4)C2)C3)cc1)N1CCCCC1`, the GI50 in test [6] was 4.09 µM; in test [1], 4.05 µM; in [7], 3.49 µM; in [8] it was 3.18 µM; in [9], 3 µM; in test [10], 2.41 µM. Further, the GI50 in test [11] was 4.87 µM. The TGI is greater than 100 µM in test [6]; greater than 100 µM in test [1]; greater than 100 µM in test [7]; greater than 100 µM in [8]; 9.4 µM in [9]; 5.6 µM in test [10]. In test [11], the TGI is greater than 100 µM.
In the case of `COc1ccc(CN2CC(C)(C)C2=O)c(OC)c1`, the TGI in test [1], in [3], in [4] and in test [5] was greater than 100 µM throughout.
Take `COCC[C@H]1CCC/C=C/[C@@H]2C[C@H](O)C[C@H]2[C@H](O)/C=C/C(=O)O1`: the GI50 in [6] is 0.445 µM; in test [1], 0.0293 µM; in [7] it was 0.0595 µM; in [8], 0.0437 µM; in test [9] it was 0.132 µM; in test [10], 0.131 µM. Moreover, the GI50 in [11] is 0.0506 µM. Further, the TGI is greater than 100 µM in [6]; 0.121 µM in test [1]; greater than 100 µM in test [7]; 0.171 µM in [8]; greater than 90.9 µM in test [9]; 0.322 µM in test [10]. This compound displayed a TGI in [11] greater than 100 µM.
Regarding `COc1c(C(=O)/C=C/c2ccccc2)c(O)cc2occc12`, the GI50 in test [6] is 3.81 µM; in test [1], 6.03 µM; in test [7], 3.21 µM; in test [8], 3.52 µM; in test [9], 7.72 µM; in test [10], 4.38 µM. In addition, the GI50 in test [11] was 2.76 µM. In addition, the TGI amounted to 13.2 µM in test [6]; 20.8 µM in test [1]; 13.2 µM in test [7]; 17.2 µM in test [8]; 27.8 µM in test [9]; 17.5 µM in [10]. Moreover, the TGI in test [11] was 8.36 µM.
As to `CC(C)c1c(O)c(O)c2c(c1O)C(=O)C(O)=C1C(C)(C)CCC[C@@]12C`, the TGI in test [6] came to 18.1 µM; in test [1] it was 7.88 µM; in test [7] it was 10.1 µM; in test [8], 12.7 µM; in test [9] it was 13 µM; in test [10] it was 7.29 µM. Moreover, the TGI in test [11] was determined as 43.5 µM.
Regarding `CC/C=C\C[C@H](O)C/C=C1/C(=O)C=C[C@@H]1C/C=C\CCCC(=O)OC`, the GI50 in [6] was 4.07 µM; in test [1], 2.17 µM; in test [7], 1.19 µM; in test [8], 0.376 µM; in test [9], 2.15 µM; in test [10], 2.94 µM. Also, in test [11], the GI50 was 5.18 µM. The TGI came to 15.2 µM in test [6]; 4.63 µM in test [1]; 10 µM in [7]; 3.62 µM in test [8]; 6.07 µM in test [9]; 9.23 µM in test [10]. For the same compound, the TGI in [11] turned out to be 40.1 µM.

The record behind these values is PubChem BioAssay (NCI).
